Measured values from patent EP0993460B1, “BENZO(5,6)CYCLOHEPTA(1,2B)PYRIDINE DERIVATIVES USEFUL FOR INHIBITION OF FARNESYL PROTEIN TRANSFERASE” (SCHERING CORPORATION, priority 1997, dated 1998).

System: COS Cell
Experiment: COS Cell IC50 (Cell-Based Assay), procedures of WO 95/10516
Experimental: FPT IC50 (inhibition of farnesyl protein transferase, in vitro enzyme assay) and COS Cell IC50 (Cell-Based Assay) were determined following the assay procedures described in WO 95/10516, published April 20, 1995. GGPT IC50 (inhibition of geranylgeranyl protein transferase, in vitro enzyme assay), Cell Mat Assay, and anti-tumor activity (in vivo anti-tumor studies) could be determined by the assay procedures described in WO 95/ 10516. The disclosure of WO 95/10516 is incorporated herein by reference thereto.

CC1(CC(=O)N2CCC([C@H]3c4ncc(Br)cc4CCc4cc(Cl)cc(Br)c43)CC2)CCN(S(C)(=O)=O)CC1 [Example 1, (+) -4-(3,10-dibromo-8-chloro-6,11-dihydro-5H-benzo[5,6]cyclohepta[1,2-b]pyridin-11(R)-yl)-1-[[4-methyl-1-(methylsulfonyl)-4-pyridinyl]acetyl]piperidine]
IC50: 22 nM
